We go through 1 molecule from patent US9119881B2, “Method of synergistically enhancing the therapeutic efficacy and safety of medication through a combination therapy” (priority 2010, dated 2015).

Data set [1] concerns stromal vascular cells (SVCs). As to the kind of experiment: Gene expression in LPS-treated stromal vascular cells. In kind it is cell-based, mice. The settings on record: LPS 100 ng/mL, 6 h, ABA 10 μM, rosiglitazone 1 μM. How it is done: SVCs from abdominal white adipose tissue were isolated from db/db mice fed high-fat control diet for 60 days. Cells were seeded into 24-well plates at 1×10^6 cells/well and treated with LPS (100 ng/mL) with and without ABA (10 μM), Ros (1 μM), or ABA and Ros (ABA/Ros). The relative expressions of genes peroxisome proliferator activated receptor γ (PPAR γ) (A), CCL17 (B), monocyte chemoattractant protein 1 (MCP-1) (C), and mannose receptor (D) were calculated as a ratio to the housekeeping gene β-actin. Data are represented as mean±standard error.
Isolated cells from the stromal vascular fraction (SVF) of WAT from high-fat fed db/db mice were enumerated and seeded into 24-well plates at […] cells/well. […]
Total RNA was isolated from adipose tissue using the RNeasy Lipid Mini Kit (Qiagen) and from cells using the RNeasy Mini Kit (Qiagen) according to the manufacturer's instructions. […] Each gene amplicon was purified with the MiniElute PCR Purification Kit (Qiagen) and quantitated on an agarose gel by using a DNA mass ladder (Promega). […]
Complementary DNA (cDNA) concentrations for genes of interest were examined by real-time quantitative PCR using an iCycler IQ System and Sybr Green PCR master mix (Applied Biosystems, Foster City, Calif.). […] Results are presented as starting quantity of target cDNA (picograms) per microgram of total RNA.

In data set [2] the test system is human aorta endothelial cells (HAECs). As to the kind of experiment: Nitric oxide assessment in HAECs. It is filed as cell-based. The note with it: 15 min treatment, beginning at 0.1 uM ABA. How it is done: Confluent human aorta endothelial cells (HAECs) were serum-starved using HBSS buffer for 30 min, then stimulated with various concentration of ABA and Forskolin (1 uM) for 5 min, after removing supernatant, cells were lysed with 0.1 M HCL to measure non-acetylated cAMP using a commercially available kit (Cayman chemical) following the manufacturer's instructions. Results (pmol/mL) were obtained from four independent experiments. For nitric oxide (NO), confluent HAECs were serum-starved for 30 min by using HBSS buffer, then treated with ABA for 15 min. Supernatant was used to measure NO using an fluorescent kit.

Data set [3] in a line: Systolic blood pressure in ApoE-deficient mice. It is filed as in vivo.
For data set [4], the system named is blood CCR2+CD11b+ monocytes and regulatory T cells (Tregs). As to the kind of experiment: Blood immune cell populations of db/db mice, flow cytometry. It is filed as in vivo. The note with it: whole blood. How it is done:
Obese db/db mice were fed high-fat diets containing 0, 15, or 70 mg/kg diet rosiglitazone maleate (control, Ros^lo, and Ros^hi, respectively) with and without racemic ABA (100 mg/kg diet). On day 60 the percent of F4/80+CD11b+ in the stromal vascular fractions of abdominal white adipose tissue (Ab. WAT) (A) and subcutaneous WAT (B) were assessed by flow cytometry. The percent of CD11b+CCR2+ monocytes (C) and CD4+CD25+FoxP3+ Tregs (D) in blood were assessed in whole blood. The expressions of the M1 marker CCL17 (E) and peroxisome proliferator activated receptor γ (PPAR γ) (F) in Ab. WAT were calculated as a ratio to the housekeeping gene f3-actin. Data are represented as mean±standard error.
Mice (n=40) were fed one of six experimental diets: a control high-fat diet (control), a high-fat diet containing low dose rosiglitazone maleate (Ros^lo, 10 mg/kg diet), or a high-fat diet containing a high dose of rosiglitazone maleate (Ros^hi, 70 mg/kg diet), each with or without all racemic ABA (100 mg/kg, Sigma Aldrich, St. Louis, Mo.) for 60 days. […] Blood glucose levels were assessed with an ACCU-CHEK® Glucometer (Roche, Indianapolis, Ind.). An intraperitoneal glucose tolerance test (IPGTT, 1 g glucose/kg body weight) was conducted on fasted mice (12 h) for 0, 30, 90, and 180 minute time points and insulin levels were measured on day 54. […]
(In general: Flow cytometry measures light scatter and fluorescence of single cells or particles in a stream.)

For data set [5], the system named is insulin-secreting pancreatic beta cells. As to the kind of experiment: Pancreatic beta cell viability / apoptosis after streptozotocin challenge. It is filed as cell-based. From the text:
Data are presented as mean±standard error.

For data set [6] the following is noted: mice fed ABA at doses ranging from 100 to 800 mg/kg of diet [44]; cited from earlier work.

As to `CC1=CC(=O)CC(C)(C)C1(O)/C=C/C(C)=C\C(=O)O` (racemic) [ABA, abscisic acid], the “M1 marker CCL17 expression” value in data set [1] is on record as “significantly reduced”. Besides, in data set [2], the nitric oxide production result is “significantly increased”. The systolic blood pressure result in data set [3] is recorded as “lowers”. Moreover, the “blood CCR2+CD11b+ monocyte levels” value in data set [4] is “mitigated”. Moreover, the “percentages of blood regulatory T cells (Tregs)” value in data set [4] (independently of Ros) is reported as “increased”. For the same molecule, the “viability of insulin-secreting pancreatic beta cells” value in data set [5] (ABA 1 and 10 micromolar, streptozotocin (STZ) 2 mM for 24 hours) was “increases”. In addition, the “pancreatic beta cell apoptosis caused by streptozotocin” value in data set [5] (FIG. 4) was “diminishes”. In addition, in data set [6], the side-effects result is given as “no detectable side-effects”.
